Activity calls are given as the source filed them. No cut-off for these calls is given here.
What was measured:
Assay type in all cases: functional
Mus musculus [1] = species: Mus musculus; test: Induction of neuronal differentiation of neuronal progenitor cells isolated from embryonic mouse cerebrum assessed as increase in MAP2 mRNA expression at 1 uM by real time PCR analysis
Mus musculus [2] = species: Mus musculus; test: Induction of neuronal differentiation of neuronal progenitor cells isolated from embryonic mouse cerebrum at 1 uM treated every second day for 4 days and measured after 48 hrs by DAPI/MAP2 fluorescent immunostaining based assay
[3] = Induction of neuronal differentiation of neuronal progenitor cells isolated from embryonic mouse cerebrum assessed as increase in MAP2 mRNA expression at 1 uM by real time PCR analysis relative to control

For `CC(C)=CCC/C(C)=C/CC/C(C)=C/CC1=C(C)C(=O)C(C)=C(C)C1=O`, which Activity (Mus musculus [1]) is on record?
Its Activity is “Active”.

What about the Activity (Mus musculus [2]) of the same molecule?
The Activity was “Active”.

What about the “fold change (FC)” value [3] of the same molecule?
Its value is 2.

With `COC1=C(OC)C(=O)C(C/C=C(\C)CC/C=C(\C)CCC=C(C)C)=C(C)C1=O` as the molecule, how does the Activity (Mus musculus [2]) read?
Its Activity is “inactive”.

With `CC1=CC(=O)c2ccccc2C1=O` as the molecule, how does the Activity (Mus musculus [2]) read?
Its Activity is “Active”.

Which Activity (Mus musculus [2]) does the source give for `COC1=C(OC)C(=O)C(C/C=C(\C)CCC=C(C)C)=C(C)C1=O` here?
Its Activity is “inactive”.

With `COC1=C(OC)C(=O)C(C/C=C(\C)CC/C=C(\C)CC/C=C(\C)CCC=C(C)C)=C(C)C1=O` as the molecule, how does the Activity (Mus musculus [1]) read?
The Activity was “Active”.

And the Activity (Mus musculus [2])?
Its Activity is “Active”.

Which Activity (Mus musculus [1]) does the source give for `CC(C)=CCC/C(C)=C/Cc1ccccc1C` here?
Its Activity is “inactive”.

And the Activity (Mus musculus [2])?
Its Activity is “inactive”.

What does the source list for `CC(C)=CCC/C(C)=C/CC/C(C)=C/CC1=C(C)C(=O)c2ccccc2C1=O`?
Activity (Mus musculus [1]): Active; Activity (Mus musculus [2]): Active

Which Activity (Mus musculus [1]) does the source give for `CC(C)=CCC/C(C)=C/Cc1cccc(C)c1` here?
The Activity was “inactive”.

And the Activity (Mus musculus [2])?
The Activity was “inactive”.

Which results are given for `CC(C)=CCC1=C(C)C(=O)c2ccccc2C1=O`?
Activity (Mus musculus [1]): Active; Activity (Mus musculus [2]): Active

For `CC(C)=CCC/C(C)=C/CC/C(C)=C/Cc1ccccc1C`, which Activity (Mus musculus [1]) is on record?
Its Activity is “inactive”.

What about the Activity (Mus musculus [2]) of the same molecule?
Its Activity is “inactive”.

For `CC(C)=CCC/C(C)=C/CC/C(C)=C/Cc1cccc(C)c1`, which Activity (Mus musculus [1]) is on record?
The Activity was “inactive”.

And the Activity (Mus musculus [2])?
Its Activity is “inactive”.

Which results are given for `CC(C)=CCC/C(C)=C/CC1=C(C)C(=O)C(C)=C(C)C1=O`?
Activity (Mus musculus [1]): Active; Activity (Mus musculus [2]): Active; fold change (FC) [3]: 2

Which Activity (Mus musculus [1]) does the source give for `CC(C)=CCC/C(C)=C/CC1=C(C)C(=O)c2ccccc2C1=O` here?
Its Activity is “Active”.

What about the Activity (Mus musculus [2]) of the same molecule?
Its Activity is “Active”.
